Measured values from US9045482B2, “Pyrido[4,3-B]indoles and methods of use” (Medivation Technologies, Inc., priority 2009, dated 2015).

Columns and labels:
[1] = target: T1, human recombinant adrenergic α2C receptor (Homo sapiens, UniProt P18825); assay: Adrenergic α2C radioligand binding ([3H]MK-912); settings: 0.1 μM ligand conc.
T1 construct: expressed in transfected cells; host or cells: insect Sf9 cells
T1 sequence (P18825 1-462): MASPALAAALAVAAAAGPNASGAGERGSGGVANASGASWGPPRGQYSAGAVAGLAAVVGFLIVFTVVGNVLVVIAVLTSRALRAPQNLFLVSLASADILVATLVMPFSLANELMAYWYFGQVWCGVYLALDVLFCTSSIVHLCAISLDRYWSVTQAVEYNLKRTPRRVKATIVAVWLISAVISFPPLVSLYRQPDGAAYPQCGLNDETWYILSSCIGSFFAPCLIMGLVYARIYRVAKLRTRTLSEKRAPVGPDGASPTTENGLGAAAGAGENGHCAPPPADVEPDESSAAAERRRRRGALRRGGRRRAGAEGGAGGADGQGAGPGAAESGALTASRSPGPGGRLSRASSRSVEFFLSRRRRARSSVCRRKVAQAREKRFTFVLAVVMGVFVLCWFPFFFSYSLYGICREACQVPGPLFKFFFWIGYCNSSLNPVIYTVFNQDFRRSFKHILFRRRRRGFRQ
Experimental: To evaluate in radioligand binding assays the activity of compounds of the invention, human recombinant adrenergic α2C receptor expressed in insect Sf9 cells [Uhlen, S. et al., J. Pharmacol. Exp. Ther. 1994), 271:1558] in a modified Tris-HCl buffer (50 mM Tris-HCl, pH 7.4, 12.5 mM MgCl2, 2 mM EDTA) was used. Compounds of the invention were incubated with 1 nM [^3H]MK-912 for 60 min at 25° C. Non-specific binding was estimated in the presence of 10 μM WB-4101. Receptor proteins were filtered and washed, the filters were then counted to determine [^3H]MK-912 specifically bound. Compounds were screened at 1 μM or lower, using 1% DMSO as vehicle. Compounds of the invention were tested in this biochemical assay. Biochemical assay results for representative compounds were presented as the percent inhibition of specific binding in Table 3.

[2] = target: T2, human recombinant serotonin (5-Hydroxytryptamine) 5-HT5A receptor (Homo sapiens, UniProt P47898); assay: Serotonin 5-HT5A radioligand binding ([3H]LSD); settings: 0.1 μM ligand concentration
T2 construct: expressed in transfected cells; host or cells: Chinese hamster ovary (CHO-K1) cells
Experimental: Compounds of the invention were incubated with 1.7 nM [^3H]Lysergic acid diethylamide (LSD) for 60 min at 37° C. […] Receptor proteins were filtered and washed, the filters were then counted to determine [^3H]LSD specifically bound. Compounds were screened at 1 μM or lower, using 1% DMSO as vehicle. Biochemical assay results are presented as the percent inhibition of specific binding in Table 4.

[3] = target: T3, human recombinant serotonin (5-Hydroxytryptamine) 5-HT2A receptor (Homo sapiens, UniProt P28223); assay: Serotonin 5-HT2A radioligand binding ([3H]Ketanserin)
T3 construct: expressed in transfected cells; host or cells: Chinese hamster ovary (CHO-K1) cells
Experimental: (1997), 68:1998] in a 50 mM Tris-HCl buffer, pH 7.4, was used. Compounds of the invention were incubated with 0.5 nM [^3H]Ketanserin for 60 min at 25° C. Non-specific binding was estimated in the presence of 1 μM Mianserin. Receptor proteins were filtered and washed, the filters were then counted to determine [^3H]Ketanserin specifically bound. Compounds were screened at 1 μM or lower, using 1% DMSO as vehicle. Biochemical assay results are presented as the percent inhibition of specific binding in Table 4.

[4] = target: T4, human recombinant adrenergic α2A receptor (Homo sapiens, UniProt P08913); assay: Adrenergic α2A radioligand binding ([3H]MK-912)
T4 construct: expressed in transfected cells; host or cells: insect Sf9 cells
T4 sequence (P08913 1-465): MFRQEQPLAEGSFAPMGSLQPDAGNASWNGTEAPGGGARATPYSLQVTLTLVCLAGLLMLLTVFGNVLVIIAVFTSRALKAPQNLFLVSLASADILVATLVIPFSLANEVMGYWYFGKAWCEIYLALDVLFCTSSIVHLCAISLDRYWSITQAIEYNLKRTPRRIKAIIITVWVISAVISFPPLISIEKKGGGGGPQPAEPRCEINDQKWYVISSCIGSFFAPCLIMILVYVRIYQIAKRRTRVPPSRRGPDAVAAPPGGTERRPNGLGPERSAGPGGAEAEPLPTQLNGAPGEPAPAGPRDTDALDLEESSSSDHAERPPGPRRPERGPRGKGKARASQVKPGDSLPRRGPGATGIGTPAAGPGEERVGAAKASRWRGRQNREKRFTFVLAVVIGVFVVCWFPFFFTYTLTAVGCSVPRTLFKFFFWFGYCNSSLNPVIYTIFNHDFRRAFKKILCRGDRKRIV
Experimental: To evaluate in radioligand binding assays the activity of compounds of the invention, human recombinant adrenergic α2A receptor expressed in insect Sf9 cells [Uhlen, S. et al., J. Pharmacol. Exp. Ther. (1994), 271:1558] in a modified Tris-HCl buffer (50 mM Tris-HCl, pH 7.4, 12.5 mM MgCl2, 2 mM EDTA) was used. Compounds of invention were incubated with 1 nM [^3H]MK-912 for 60 min at 25° C. MK912 was (2S-trans)-1,3,4,5′,6,6′,7,12b-octahydro-1′,3′-dimethyl-spiro[2H-benzofuro[2,3-a]quinolizine-2,4′(1′H)-pyrimidin]-2′(3′H)-one hydrochloride Non-specific binding was estimated in the presence of 10 μM WB-4101 (2-(2,6-dimethoxyphenoxyethyl)aminomethyl-1,4-benzodioxane hydrochloride). Receptor proteins were filtered and washed, the filters were then counted to determine [^3H]MK-912 specifically bound. Compounds were screened at 1 μM or lower, using 1% DMSO as vehicle. Compounds of the invention were tested in this biochemical assay. Biochemical assay results for representative compounds were presented as the percent inhibition of specific binding in Table 3.

T2 sequence (P47898 whole entry): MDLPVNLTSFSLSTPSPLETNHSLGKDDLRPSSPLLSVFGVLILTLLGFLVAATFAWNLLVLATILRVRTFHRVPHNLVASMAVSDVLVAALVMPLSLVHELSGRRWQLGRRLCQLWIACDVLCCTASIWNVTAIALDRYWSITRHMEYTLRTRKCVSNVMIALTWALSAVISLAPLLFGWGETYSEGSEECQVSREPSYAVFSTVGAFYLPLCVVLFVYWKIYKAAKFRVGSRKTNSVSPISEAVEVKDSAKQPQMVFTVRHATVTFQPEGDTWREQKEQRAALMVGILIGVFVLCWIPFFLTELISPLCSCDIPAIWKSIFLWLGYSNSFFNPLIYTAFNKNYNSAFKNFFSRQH
T3 sequence (P28223 whole entry): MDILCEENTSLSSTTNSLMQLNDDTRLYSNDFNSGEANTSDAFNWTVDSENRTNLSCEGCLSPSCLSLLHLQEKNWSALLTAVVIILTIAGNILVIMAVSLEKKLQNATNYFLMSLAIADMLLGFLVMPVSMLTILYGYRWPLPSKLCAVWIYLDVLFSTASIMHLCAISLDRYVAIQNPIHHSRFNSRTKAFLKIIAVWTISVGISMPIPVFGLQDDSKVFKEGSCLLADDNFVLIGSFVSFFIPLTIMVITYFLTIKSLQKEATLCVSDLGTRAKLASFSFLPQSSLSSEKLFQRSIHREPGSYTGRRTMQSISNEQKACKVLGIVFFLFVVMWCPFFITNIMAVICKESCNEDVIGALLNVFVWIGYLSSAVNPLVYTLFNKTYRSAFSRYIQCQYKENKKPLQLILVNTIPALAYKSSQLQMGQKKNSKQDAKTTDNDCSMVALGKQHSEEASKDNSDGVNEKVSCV

Row | SMILES | Percent Inhibition of ligand binding Adrenergic α2C [1] [%] | Percent Inhibition of ligand binding Serotonin 5-HT5A [2] [%] | Percent Inhibition of ligand binding Serotonin 5-HT2A ([3]; 0.1 μM ligand concentration) [%] | Percent Inhibition of ligand binding Adrenergic α2A ([4]; 1 μM ligand conc.) [%] | Percent Inhibition of ligand binding Serotonin 5-HT2A ([3]; 1 μM ligand concentration) [%] | Percent Inhibition of ligand binding Adrenergic α2A ([4]; 0.1 μM ligand conc.) [%]
1 | C/C(=C\n1c2c(c3cc(C)ccc31)C1CCCN1CC2)c1ccc(C)nc1 (stereo not drawn) [Compound 32, (E)-10-methyl-7-(2-(6-methylpyridin-3-yl)prop-1-enyl)-2,3,5,6,7,11c-hexahydro-1H-indolizino[7,8-b]indole] | 45 | 24 | 50 |  |  | 
2 | Fc1ccc(CCn2c3c(c4cc(Cl)ccc42)C2CCCN2CC3)cc1 (stereo not drawn) [Compound 1, 7-(4-fluorophenethyl)-10-chloro-2,3,5,6,7,11c-hexahydro-1H-indolizino[7,8-b]indole] |  |  |  | 22 | 11 | 
3 | Cc1cnc2c(c1)c1c(n2CCc2ccc(C)nc2)CCN2CCCC12 (stereo not drawn) [Compound 33, 10-methyl-7-(2-(6-methylpyridin-3-yl)ethyl)-2,3,5,6,7,1c-hexahydro-1H-pyrido[3′,2′:4,5]pyrrolo[2,3-g]indolizine] | 4 | 0 | 29 |  |  | 
4 | O=C(Cn1c2c(c3cccnc31)C1CCCN1CC2)N1CCCCC1 (stereo not drawn) [Compound 38, 1-(piperidin-1-yl)-2-(2,3,5,6-tetrahydro-1H-pyrido[3′,2′:4,5]pyrrolo[2,3-g]indolizin-7(11cH)-yl)ethanone] | −6 | 8 | 19 |  |  | 4
5 | O=C(Cn1c2c(c3cccnc31)CN1CCCC1C2)N1CCCCC1 (stereo not drawn) [Compound 37, 1-(piperidin-1-yl)-2-(8,9,9a,10-tetrahydro-5H-pyrido[3′,2′:4,5]pyrrolo[3,2-f]indolizin-11(7H)-yl)ethanone] | 4 | 8 | 33 |  |  | 12
6 | Cc1ccc(CCn2c3c(c4cccnc42)C2CCCN2CC3)cn1 (stereo not drawn) [Compound 34, 7-(2-(6-methylpyridin-3-yl)ethyl)-2,3,5,6,7,1c-hexahydro-1H-pyrido[3′,2′:4,5]pyrrolo[2,3-g]indolizine] | 1 | 6 | 15 |  |  | 
7 | Cc1ccc(CCn2c3c(c4cccnc42)CN2CCCC2C3)cn1 (stereo not drawn) [Compound 35, 11-(2-(6-methylpyridin-3-yl)ethyl)-7,8,9,9a,10,11-hexahydro-5H-pyrido[3′,2′:4,5]pyrrolo[3,2-f]indolizine] | 2 | 10 | 31 |  |  | 
8 | Cc1cnc2c(c1)c1c(n2CCc2ccc(C)nc2)CC2CCCN2C1 (stereo not drawn) [Compound 36, 3-methyl-11-(2-(6-methylpyridin-3-yl)ethyl)-7,8,9,9a,10,11-hexahydro-5H-pyrido[3′,2′:4,5]pyrrolo[3,2-f]indolizine] | 3 | 25 | 35 |  |  | 
9 | Fc1ccc(CCn2c3c(c4cc(Cl)ccc42)CN2CCCC2C3)cc1 (stereo not drawn) [Compound 2, 10-(4-fluorophenethyl)-7-chloro-2,3,5,10,11,11a-hexahydro-1H-indolizino[7,6-b]indole] |  |  |  | 20 | 41 | 
